In patent US20080045584A1, “Use of Docetaxel for Treating Hepatocellular Carcinoma” (priority 1999, published 2008):

Key:
Hep G2 cells [1] = assay: Propidium iodide (PI) exclusion assay, flow cytometry; type: cell-based, human
Experimental: (§1) Cells were grown on 5-cm^2 flasks (CORNING) and treated with paclitaxel and docetaxel as set out above. Propidium iodide (10 μg/ml) was then added for 15 minutes incubation at 37° C. Then, medium was collected prior to harvest of the adherent cells. Both suspended and attached cells were collected and resuspended with 500 μl PBS for flow cytometry analysis as set out below. Debris signals were removed by FSC-SSC gating.
(§2) Cells (10000) were analyzed on a Becton Dickinson FACS Calibur flow cytometer using an argon-ion laser (15 mWatt) with incident beam at 488 nm. For PI exclusion assay, red fluorescence was collected through a 585 nm filter and the cell debris signals were removed by FSC-SSC gating. Data were acquired and analyzed using FACS/CELL Quest software on a Power Macintosh 7600/120 computer. Apoptotic cells and cells at specific cycle phases were determined by ModFit LT software.
(§3) Data are mean±standard error of mean from duplicated sample of at least three independent experiments. Cells were treated with drugs for 24-72 hours, and membrane permeability was measured by flowcytometric analysis of propidium exclusion in viable hepatoma cells. Data are the percentage of cells with intact cell membrane as compared to control

HA22T/VGH cells [2] = assay: as above; type: cell-based, human
Experimental: as §1, §2, §3

Hep 3B cells [3] = assay: as above; type: cell-based, human
Experimental: as §1, §2, §3

Hep G2 cells [4] = assay: DNA fragmentation electrophoresis analysis; type: cell-based, human; settings: Hep G2, 0.1 and 1 μM, 72 hours
Experimental: DNA fragmentation assessment was according to the method Herrmann et al, Nucleic Acids Res., 22, 5506-5507, 1994.
Briefly, HEP G2 cells (2×10^7) were treated for 72 hours with paclitaxel and docetaxel as set out above and centrifuged. The thus obtained cell pellets were resuspended with NP-40 lysis buffer (1% NP-40 in 20 mM EDTA, 50 mM Tris-HCl, pH 7.5). After lysis of cells for a few seconds, the supernatants were collected (5 minutes at 1600×g). The extraction was repeated with the same lysis buffer. SDS (final concentration 1%) and RNase were added (final concentration 2.5 μg/μl) to supernatants and incubated for 2 hours at 56° C. followed by digestion with proteinase K (2.5 μg/μl) for 2 hours at 37° C. Then, the mixtures were added to 10 M ammonium acetate prior to 100% ethanol precipitation for 30 minutes at −20° C. The DNA was collected by centrifugation (10 min at 12000 ×g) followed by electrophoresis on 1.5% agarose gel.
In FIG. 3, M is a 100 base pair marker. […] Lanes 2 and 3 show mean paclitaxel (0.1 and 1 μM) treatment groups. Lanes 4 and 5 show mean docetaxel (0.1 and 1 μM) treatment groups.

Hepa 1-6 cells = assay: Propidium iodide (PI) exclusion assay, flow cytometry; type: cell-based, murine
Experimental: as §1, §2, §3

Hep G2 cells [5] = assay: Flow cytometric analysis of DNA content (cell cycle, sub-G0/G1); type: cell-based, human; settings: for apoptotic percentages (sub-G0/G1 cells): 0.001 μM
Experimental: (§4) Lysing buffer (0.5% Triton X-100, 0.2 μg/ml Na2EDTA.2H2O, and 1% bovine serum albumin in PBS) was added to the cell pellets which were then left on ice for 15 minutes. 100% methanol pre-cooled to −20° C. was then added to the mixture, which was then centrifuged at 300×g for 5 minutes. The supernatant was discarded and the cell pellet was washed with PBS. The washed pellet was stained with a DNA staining solution (50 μg/ml propidium iodide, and 5 kunitz/ml of RNase A) for 30 minutes at 4° C. in the dark. The DNA content of each cell was measured using a Becton Dickinson FACS Calibur flow cytometer as set out below.
as §2
(§5) Table 1 gives figures for cell membrane permeability of the hepatoma cells, following treatment with paclitaxel and docetaxel. Table 2 details the percentage of apoptotic (sub-G0/G1) cells found after paclitaxel and docetaxel treatment.

HA22T/VGH cells [6] = assay: as above; type: cell-based, human
Experimental: as §4, §2, §5

Hep 3B cells [7] = assay: as above; type: cell-based, human
Experimental: as §4, §2, §5

[8] = tested on: hepatoma cell lines (Hep G2, Hep 3B, HA22T/VGH and Hepa 1-6); assay: Cell viability study: MTT assay, all lines (FIG. 1); type: cell-based
Hep G2 cells [9] = assay: Cell viability study: MTT assay; type: cell-based, human; settings: for viability: Hep G2, 1 μM

`CC(=O)O[C@@]12CO[C@@H]1C[C@H](O)[C@@]1(C)C(=O)[C@H](O)C3=C(C)[C@@H](OC(=O)[C@H](O)[C@@H](NC(=O)OC(C)(C)C)c4ccccc4)C[C@@](O)([C@@H](OC(=O)c4ccccc4)[C@H]21)C3(C)C` [Docetaxel] was tested, and the “percentage of cells with intact cell membrane as compared to control” value (from here on “percentage of cells”) (Hep G2 cells [1]; Hep G2, 24 hrs, 0.01 μM) was 94.86 ± 1.3%, the “percentage of cells” value (Hep G2 cells [1]; Hep G2, 24 hrs, 0.1 μM) was 85.49 ± 1.2% and the “percentage of cells” value (Hep G2 cells [1]; Hep G2, 24 hrs, 1 μM) was 81.24 ± 3.2%. The “percentage of cells” value (Hep G2 cells [1]; Hep G2, 72 hrs, 0.01 μM) was 61.06 ± 9.6%, the “percentage of cells” value (Hep G2 cells [1]; Hep G2, 72 hrs, 0.1 μM) was 40.03 ± 9.0% and the “percentage of cells” value (Hep G2 cells [1]; Hep G2, 72 hrs, 1 μM) was 27.42 ± 8.8%. The “percentage of cells” value (HA22T/VGH cells [2]; 24 hrs, 0.01 μM) was 98.66 ± 9.0%, the “percentage of cells” value (HA22T/VGH cells [2]; 24 hrs, 0.1 μM) was 38.71 ± 11.2% and the “percentage of cells” value (HA22T/VGH cells [2]; 24 hrs, 1 μM) was 40.79 ± 5.0%. For the same compound, the “percentage of cells” value (HA22T/VGH cells [2]; 72 hrs, 0.01 μM) was 55.44 ± 5.6%, the “percentage of cells” value (HA22T/VGH cells [2]; 72 hrs, 0.01 μM, listed as docetaxel) was 55.44% and the “percentage of cells” value (HA22T/VGH cells [2]; 72 hrs, 0.1 μM) was 21.24 ± 0.4%. For the same compound, the “percentage of cells” value (HA22T/VGH cells [2]; 72 hrs, 1 μM) was 22.03 ± 3.1%, the “percentage of cells” value (Hep 3B cells [3]; 24 hrs, 0.01 μM) was 93.80 ± 10.7% and the “percentage of cells” value (Hep 3B cells [3]; 24 hrs, 0.1 μM) was 57.41 ± 6.8%. For the same compound, the “percentage of cells” value (Hep 3B cells [3]; 24 hrs, 1 μM) was 57.39 ± 4.3%, the “percentage of cells” value (Hep 3B cells [3]; 72 hrs, 0.01 μM) was 36.81 ± 14.7% and the “percentage of cells” value (Hep 3B cells [3]; 72 hrs, 0.1 μM) was 36.25 ± 13.5%. The “percentage of cells” value (Hep 3B cells [3]; 72 hrs, 1 μM) was 20.25 ± 14.4%, the “DNA fragmentation (agarose gel, FIG. 3)” value (Hep G2 cells [4]) was “induced DNA fragmentation” and the “percentage of cells” value (Hepa 1-6 cells; Hepa 1-6, 24 hrs, 0.01 μM) was 94.45 ± 1.9%. The “percentage of cells” value (Hepa 1-6 cells; Hepa 1-6, 24 hrs, 0.1 μM) was 83.35 ± 7.2%, the “percentage of cells” value (Hepa 1-6 cells; Hepa 1-6, 24 hrs, 1 μM) was 81.88 ± 8.7% and the “percentage of cells” value (Hepa 1-6 cells; Hepa 1-6, 72 hrs, 0.01 μM) was 77.18 ± 1.4%. For the same compound, the “percentage of cells” value (Hepa 1-6 cells; Hepa 1-6, 72 hrs, 0.1 μM) was 43.94 ± 3.4%, the “percentage of cells” value (Hepa 1-6 cells; Hepa 1-6, 72 hrs, 1 μM) was 38.90 ± 4.2% and the “apoptotic percentages (sub-G0/G1 cells)” value (Hep G2 cells [5]; Hep G2, 24 hours) was 31.02%. The “% of apoptotic (sub-G0/G1) cells” value (Hep G2 cells [5]; Hep G2, 24 hrs, 0.01 mM (text: μM)) was 45.24%, the “% of apoptotic (sub-G0/G1) cells” value (Hep G2 cells [5]; Hep G2, 24 hrs, 0.1 mM (text: μM)) was 38.77% and the “% of apoptotic (sub-G0/G1) cells” value (Hep G2 cells [5]; Hep G2, 24 hrs, 1 mM (text: μM)) was 28.33%. For the same compound, the “apoptotic percentages (sub-G0/G1 cells)” value (Hep G2 cells [5]; Hep G2, 72 hours) was 21.92%, the “% of apoptotic (sub-G0/G1) cells” value (Hep G2 cells [5]; Hep G2, 72 hrs, 0.01 mM (text: μM)) was 42.45% and the “% of apoptotic (sub-G0/G1) cells” value (Hep G2 cells [5]; Hep G2, 72 hrs, 0.1 mM (text: μM)) was 42.44%. For the same compound, the “% of apoptotic (sub-G0/G1) cells” value (Hep G2 cells [5]; Hep G2, 72 hrs, 1 mM (text: μM)) was 56.66%, the “% of apoptotic (sub-G0/G1) cells” value (HA22T/VGH cells [6]; 24 hrs, 0.01 mM (text: μM)) was 41.75% and the “% of apoptotic (sub-G0/G1) cells” value (HA22T/VGH cells [6]; 24 hrs, 0.1 mM (text: μM)) was 18.61%. The “% of apoptotic (sub-G0/G1) cells” value (HA22T/VGH cells [6]; 24 hrs, 1 mM (text: μM)) was 22.94%, the “% of apoptotic (sub-G0/G1) cells” value (HA22T/VGH cells [6]; 72 hrs, 0.01 mM (text: μM)) was 56.64% and the “% of apoptotic (sub-G0/G1) cells” value (HA22T/VGH cells [6]; 72 hrs, 0.1 mM (table head; text: μM)) was 58.61%. The “% of apoptotic (sub-G0/G1) cells” value (HA22T/VGH cells [6]; 72 hrs, 1 mM (table head; text: μM)) was 60.98%, the “% of apoptotic (sub-G0/G1) cells” value (Hep 3B cells [7]; 24 hrs, 0.01 mM (text: μM)) was 59.14% and the “% of apoptotic (sub-G0/G1) cells” value (Hep 3B cells [7]; 24 hrs, 0.1 mM (table head; text: μM)) was 58.67%. For the same compound, the “% of apoptotic (sub-G0/G1) cells” value (Hep 3B cells [7]; 24 hrs, 0.1 mM (table head; text: μM), listed as docetaxel) was 58.69%, the “% of apoptotic (sub-G0/G1) cells” value (Hep 3B cells [7]; 24 hrs, 1 mM (text: μM)) was 65.74% and the “% of apoptotic (sub-G0/G1) cells” value (Hep 3B cells [7]; 72 hrs, 0.01 mM (text: μM)) was 64.12%. The “% of apoptotic (sub-G0/G1) cells” value (Hep 3B cells [7]; 72 hrs, 0.1 mM (text: μM)) was 81.66%, the “% of apoptotic (sub-G0/G1) cells” value (Hep 3B cells [7]; 72 hrs, 1 mM (text: μM)) was 79.33% and the “cell viability compared with paclitaxel (FIG. 1)” value ([8]; 0.01 and 0.1 μM, in nearly every case) was “decreased viability”. For the same compound, the “in vitro activity against HCC cells compared with paclitaxel” value ([8]; concentrations of up to 1 μM) was “significantly higher”, the viability (Hep G2 cells [9]; 24 hours) was 65.03% and the viability (Hep G2 cells [9]; 72 hours) was 48.99%. The “viability at 10 μM compared with 1 μM” value (Hep G2 cells [9]; Hep G2, 10 μM, maximal reduction observed at 1 μM) was “no further decrease in viability”.
